For 9 compounds, IC50, inhibition and Activity results are on record in ChEMBL document CHEMBL1156116, “Histone deacetylase and microtubules as targets for the synthesis of releasable conjugate compounds” (Bioorg Med Chem Lett, 2009).

Assay [1] deals with IGROV-1. As to the kind of experiment: Antiproliferative activity against human IGROV1 cells assessed as growth inhibition after 72 hrs by Coulter counting analysis. Conditions: IGROV-1, 72 h. Type of assay: functional, cell-based.
The target of assay [2] is T1, Protein deacetylase HDAC6 (Homo sapiens) (UniProt Q9UBN7).
T1 sequence (whole entry): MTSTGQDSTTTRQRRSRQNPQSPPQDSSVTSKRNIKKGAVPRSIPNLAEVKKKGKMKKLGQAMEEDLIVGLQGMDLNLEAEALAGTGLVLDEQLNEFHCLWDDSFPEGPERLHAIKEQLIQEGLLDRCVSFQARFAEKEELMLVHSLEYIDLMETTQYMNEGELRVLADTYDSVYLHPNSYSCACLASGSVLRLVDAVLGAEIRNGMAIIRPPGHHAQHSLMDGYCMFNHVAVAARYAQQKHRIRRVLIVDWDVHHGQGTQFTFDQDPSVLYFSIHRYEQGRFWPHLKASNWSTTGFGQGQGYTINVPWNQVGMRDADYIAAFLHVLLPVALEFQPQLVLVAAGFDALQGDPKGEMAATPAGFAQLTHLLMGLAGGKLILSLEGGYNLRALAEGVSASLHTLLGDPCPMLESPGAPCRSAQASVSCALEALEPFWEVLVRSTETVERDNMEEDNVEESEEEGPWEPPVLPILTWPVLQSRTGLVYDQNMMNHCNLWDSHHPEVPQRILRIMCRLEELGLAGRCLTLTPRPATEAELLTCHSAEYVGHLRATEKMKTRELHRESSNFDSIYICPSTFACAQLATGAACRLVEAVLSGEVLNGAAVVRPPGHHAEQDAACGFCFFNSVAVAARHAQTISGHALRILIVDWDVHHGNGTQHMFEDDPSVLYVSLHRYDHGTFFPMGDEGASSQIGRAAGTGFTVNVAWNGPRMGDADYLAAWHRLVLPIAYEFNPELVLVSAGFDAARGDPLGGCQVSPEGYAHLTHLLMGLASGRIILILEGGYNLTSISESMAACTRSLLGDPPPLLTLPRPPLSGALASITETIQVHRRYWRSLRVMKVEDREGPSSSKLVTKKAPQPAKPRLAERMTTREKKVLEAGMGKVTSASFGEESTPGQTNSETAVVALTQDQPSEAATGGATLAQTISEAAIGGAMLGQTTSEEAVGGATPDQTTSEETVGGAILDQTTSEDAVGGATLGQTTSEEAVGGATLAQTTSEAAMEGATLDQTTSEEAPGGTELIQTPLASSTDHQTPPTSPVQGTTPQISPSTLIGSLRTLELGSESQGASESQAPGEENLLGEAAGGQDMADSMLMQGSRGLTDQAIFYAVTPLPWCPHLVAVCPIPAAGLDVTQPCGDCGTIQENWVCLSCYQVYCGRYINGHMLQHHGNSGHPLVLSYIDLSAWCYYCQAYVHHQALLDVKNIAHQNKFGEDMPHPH
As to the kind of experiment: Inhibition of human HDAC6 in human IGROV1 cells assessed as alpha-tubulin acetylation after 4 hrs by Western blot analysis. Conditions: IGROV-1. Type of assay: cell-based.

The target of assay [3] is Histone deacetylase 1 (Homo sapiens) (UniProt Q13547). Kind of assay: Inhibition of human HDAC1 in human IGROV1 cells assessed as histone H4 acetylation after 4 hrs by Western blot analysis. It counts as cell-based. The note with it: IGROV-1.
Chain of Histone deacetylase 1 (Homo sapiens) (Q13547 whole entry): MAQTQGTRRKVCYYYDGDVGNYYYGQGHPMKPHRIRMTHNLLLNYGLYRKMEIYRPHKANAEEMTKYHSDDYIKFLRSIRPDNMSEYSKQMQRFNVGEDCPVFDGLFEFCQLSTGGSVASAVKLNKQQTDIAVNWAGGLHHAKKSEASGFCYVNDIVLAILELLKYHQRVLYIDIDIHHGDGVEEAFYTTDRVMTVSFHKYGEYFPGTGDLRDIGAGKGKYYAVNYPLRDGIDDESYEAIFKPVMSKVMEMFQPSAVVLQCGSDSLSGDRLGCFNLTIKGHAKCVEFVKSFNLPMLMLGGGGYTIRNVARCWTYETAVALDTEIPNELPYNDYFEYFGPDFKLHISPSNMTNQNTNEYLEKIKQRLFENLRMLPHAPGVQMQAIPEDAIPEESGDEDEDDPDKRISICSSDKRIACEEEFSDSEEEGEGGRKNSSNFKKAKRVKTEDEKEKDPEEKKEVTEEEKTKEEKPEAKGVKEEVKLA
Assay [4] deals with T1, Protein deacetylase HDAC6 (Homo sapiens). Kind of assay: Inhibition of human HDAC6 in human IGROV1 cells assessed as alpha-tubulin acetylation at 0.33 to 0.1 uM after 48 hrs by Western blot analysis. The note with it: IGROV-1. Type of assay: cell-based.
Assay [5] has as its system IGROV-1. As to the kind of experiment: Induction of apoptosis in human IGROV1 cells at IC80 concentration by TUNEL assay. It counts as functional.
Assay [6] deals with Histone deacetylase 1 (Homo sapiens) (UniProt Q13547). Kind of assay: Inhibition of human HDAC1 in human IGROV1 cells assessed as histone H4 acetylation at 0.1 uM after 4 hrs by Western blot analysis. The note with it: IGROV-1. Type of assay: cell-based.
Assay [7] has as its target T1, Protein deacetylase HDAC6 (Homo sapiens). Kind of assay: Inhibition of human HDAC6 in human IGROV1 cells assessed as alpha-tubulin acetylation at 0.1 uM after 48 hrs by Western blot analysis. Conditions: IGROV-1. Type of assay: cell-based.

The structures appear in SMILES notation. The source made the active and inactive calls. The rule behind the calls is not given here.

Take `CC(C)(C)OC(=O)N(Cc1ccccc1)Cc1ccc(/C=C/C(=O)NO)cc1`: in assay [1], the half-maximal inhibitory concentration (IC50) is 19100 nM. On to `C/C=C(\C)C(=O)N[C@@H](c1ccccc1)[C@@H](O)C(=O)O[C@H]1C[C@@]2(O)[C@@H](OC(=O)c3ccccc3)[C@@H]3[C@]4(OC(C)=O)CO[C@@H]4C[C@H](O)[C@@]3(C)C(=O)[C@H](OC(C)=O)C(=C1C)C2(C)C` [CEPHALOMANNINE], for which, in assay [1], the IC50 stood at 300 nM.

On to `O=C(/C=C/c1ccc(CNCc2ccccc2)cc1)NO`, for which the IC50 in assay [1] was 480 nM. Also, the inhibition entry in assay [2] and in assay [3] was “Dose-dependent effect” throughout. As to `COc1cc2c(c(OC)c1OC)-c1ccc(SC)c(=O)cc1[C@@H](NC(=O)CCCSSCCCC(=O)O)CC2`, in assay [1], the IC50 worked out at 19 nM. With `CC(C)(C)OC(=O)N(Cc1ccccc1)Cc1ccc(/C=C/C(=O)NOC2CCCCO2)cc1` (configuration not stated), the IC50 in assay [1] is 41000 nM. As to `CC(=O)O[C@H]1C(=O)[C@@]2(C)[C@H]([C@H](OC(=O)c3ccccc3)[C@]3(O)C[C@H](OC(=O)[C@H](O)[C@@H](NC(=O)c4ccccc4)c4ccccc4)C(C)=C1C3(C)C)[C@]1(OC(C)=O)CO[C@@H]1C[C@@H]2O` [PACLITAXEL], the IC50 in assay [1] worked out at 60 nM. Regarding `COc1cc2c(c(OC)c1OC)-c1ccc(SC)c(=O)cc1[C@@H](NC(=O)CCCSSCCCC(=O)OCCN(Cc1ccccc1)Cc1ccc(/C=C/C(=O)NO)cc1)CC2`, in assay [1], the IC50 stood at 78 nM. Further, in assay [4], the inhibition result is “Active”. Besides, the Activity in assay [5] is given as 45%. `O=C(/C=C/c1ccc(CN(CCO)Cc2ccccc2)cc1)NO`: the IC50 in assay [1] came to 18 nM. Also, the inhibition entry in assay [2] and in assay [3] was “Dose-dependent effect” in each case. For `COc1cc2c(c(OC)c1OC)-c1ccc(SC)c(=O)cc1[C@@H](NC(=O)CCCSSCCCC(=O)N[C@H]1CCc3cc(OC)c(OC)c(OC)c3-c3ccc(SC)c(=O)cc31)CC2`, the 50% inhibitory concentration (IC50) in assay [1] came out at 50 nM. The inhibition result in assay [6] and in assay [7] was “Active” in each case.
